Target: T1, STAT6 (Homo sapiens, UniProt P42226)
T1 construct: stably transfected HaCaT keratinocyte cell line, which expresses NanoLuc luciferase reporter gene under the transcriptional control of the STAT6 responsive promoter; endogenous in cells; host or cells: HaCaT keratinocyte reporter cell line (stably transfected with a NanoLuc reporter)
T1 sequence (P42226 1-847): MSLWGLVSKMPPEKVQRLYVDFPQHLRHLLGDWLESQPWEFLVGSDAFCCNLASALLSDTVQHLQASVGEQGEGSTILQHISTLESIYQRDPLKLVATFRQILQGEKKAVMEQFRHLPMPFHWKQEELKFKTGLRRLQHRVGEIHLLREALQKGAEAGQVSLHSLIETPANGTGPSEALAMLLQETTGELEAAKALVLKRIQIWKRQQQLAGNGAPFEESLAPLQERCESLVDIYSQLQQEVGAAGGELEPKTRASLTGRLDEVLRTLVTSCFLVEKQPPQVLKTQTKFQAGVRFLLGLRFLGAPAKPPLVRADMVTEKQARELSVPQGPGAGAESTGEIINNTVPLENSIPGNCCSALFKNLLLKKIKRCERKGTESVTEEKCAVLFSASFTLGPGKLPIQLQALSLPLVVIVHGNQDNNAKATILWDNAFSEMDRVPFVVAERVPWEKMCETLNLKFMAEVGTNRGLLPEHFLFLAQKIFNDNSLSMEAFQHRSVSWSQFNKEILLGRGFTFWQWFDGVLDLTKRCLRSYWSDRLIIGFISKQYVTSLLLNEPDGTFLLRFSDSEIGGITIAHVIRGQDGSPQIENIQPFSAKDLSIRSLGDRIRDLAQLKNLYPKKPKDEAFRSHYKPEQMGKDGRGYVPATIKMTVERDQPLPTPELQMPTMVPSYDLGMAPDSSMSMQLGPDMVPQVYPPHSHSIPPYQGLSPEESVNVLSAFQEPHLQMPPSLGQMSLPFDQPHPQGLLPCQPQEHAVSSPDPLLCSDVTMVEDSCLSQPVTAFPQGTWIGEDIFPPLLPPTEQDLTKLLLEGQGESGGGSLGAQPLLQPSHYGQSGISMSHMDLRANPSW
Assay: STAT6 Reporter Luciferase Assay (IL-13 stimulated HaCaT keratinocyte NanoLuc reporter cells)
Format: cell-based
Conditions: IL-13 stimulated HaCaT STAT6 NanoLuc reporter cells; read-out: Reporter EC50
Summary of the method: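 HaCaT IL-13Ra2-promoter NanoLuc reporter; cpd 2 h 37 °C in DMEM/2% HI FBS; IL-13 0.12 nM final, 4 h; Nano-Glo luminescence.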

| SMILES | EC50 [nM] |
| --- | --- |
| CCS(=O)(=O)N1CCN(C(=O)c2ccc(N3CCc4c(c(C(=O)NCc5ccc(NC(=O)N(C)C)cc5)nn4C(C)C)C3)nc2)CC1 [Example 563, N-(4-(3,3-dimethylureido)benzyl)-5-(5-(4-(ethylsulfonyl)piperazine-1-carbonyl)pyridin-2-yl)-1-isopropyl-4,5,6,7-tetrahydro-1H-pyrazolo[4,3-c]pyridine-3-carboxamide] | 202 |
| CC(C)n1nc(C(=O)NCc2ccc(NC(=O)N(C)C)cc2)c2c1CCN(c1ccc(C(=O)N3CCC4(CCC(=O)N4C)CC3)cn1)C2 [Example 564, N-(4-(3,3-dimethylureido)benzyl)-1-isopropyl-5-(5-(1-methyl-2-oxo-1,8-diazaspiro[4.5]decane-8-carbonyl)pyridin-2-yl)-4,5,6,7-tetrahydro-1H-pyrazolo[4,3-c]pyridine-3-carboxamide] | 223 |
| COCCN1CCC(CN(C)C(=O)c2ccc(N3Cc4c(C(=O)NCc5ccc(NC(=O)N(C)C)cc5)nn(C(C)C)c4[C@@H](C)C3)cc2)CC1 [Example 565, (S)-N-(4-(3,3-dimethylureido)benzyl)-1-isopropyl-5-(4-(((1-(2-methoxyethyl)piperidin-4-yl)methyl)(methyl)carbamoyl)phenyl)-7-methyl-4,5,6,7-tetrahydro-1H-pyrazolo[4,3-c]pyridine-3-carboxamide] | 5 |
| Cc1nn(C)c(=O)n1-c1ccc(N2Cc3c(C(=O)NCc4ccc(NC(=O)N5CCN(C)CC5)cc4)nn(C(C)C)c3[C@@H](C)C2)nc1 [Example 613, (S)-5-(5-(1,3-dimethyl-5-oxo-1,5-dihydro-4H-1,2,4-triazol-4-yl)pyridin-2-yl)-1-isopropyl-7-methyl-N-(4-(4-methylpiperazine-1-carboxamido)benzyl)-4,5,6,7-tetrahydro-1H-pyrazolo[4,3-c]pyridine-3-carboxamide] | 3 |
| CC(C)n1nc(C(=O)NCc2ccc(NC(=O)N3CCN4CCCC[C@H]4C3)c(F)c2)c2c1[C@@H](C)CN(c1ccc(C(=O)N(C)C)cc1)C2 [Example 640, (S)-N-(4-(((S)-5-(4-(dimethylcarbamoyl)phenyl)-1-isopropyl-7-methyl-4,5,6,7-tetrahydro-1H-pyrazolo[4,3-c]pyridine-3-carboxamido)methyl)-2-fluorophenyl)octahydro-2H-pyrido[1,2-a]lpyrazine-2-carboxamide] | 1 |
| CC(C)n1nc(C(=O)NCc2ccc(NC(=O)N3CC4(CN(C)C4)C3)c(F)c2)c2c1[C@@H](C)CN(c1ccc(C(=O)N(C)C)cc1)C2 [Example 641, (S)-5-(4-(dimethylcarbamoyl)phenyl)-N-(3-fluoro-4-(6-methyl-2,6-diazaspiro[3.3]heptane-2-carboxamido)benzyl)-1-isopropyl-7-methyl-4,5,6,7-tetrahydro-1H-pyrazolo[4,3-c]pyridine-3-carboxamide] | 5 |
| CC(C)n1nc(C(=O)NCc2ccc(NC(=O)N3CCC4(CCN(C)C4)CC3)c(F)c2)c2c1[C@@H](C)CN(c1ccc(C(=O)N(C)C)cc1)C2 [Example 642, (S)-N-(4-((5-(4-(dimethylcarbamoyl)phenyl)-1-isopropyl-7-methyl-4,5,6,7-tetrahydro-1H-pyrazolo[4,3-c]pyridine-3-carboxamido)methyl)-2-fluorophenyl)-2-methyl-2,8-diazaspiro[4.5]decane-8-carboxamide] | 1 |
| CC(C)n1nc(C(=O)NCc2ccc(NC(=O)N3CCC4(CC3)CN(C)CCO4)c(F)c2)c2c1[C@@H](C)CN(c1ccc(C(=O)N(C)C)cc1)C2 [Example 643, (S)-N-(4-((5-(4-(dimethylcarbamoyl)phenyl)-1-isopropyl-7-methyl-4,5,6,7-tetrahydro-1H-pyrazolo[4,3-c]pyridine-3-carboxamido)methyl)-2-fluorophenyl)-4-methyl-1-oxa-4,9-diazaspiro[5.5]undecane-9-carboxamide] | 1 |
| CC(C)n1nc(C(=O)NCc2ccc(NC(=O)N3CCC4(CCCN(C)C4)CC3)c(F)c2)c2c1[C@@H](C)CN(c1ccc(C(=O)N(C)C)cc1)C2 [Example 644, (S)-N-(4-((5-(4-(dimethylcarbamoyl)phenyl)-1-isopropyl-7-methyl-4,5,6,7-tetrahydro-1H-pyrazolo[4,3-c]pyridine-3-carboxamido)methyl)-2-fluorophenyl)-2-methyl-2,9-diazaspiro[5.5]undecane-9-carboxamide] | 1 |
| CC(C)n1nc(C(=O)NCc2ccc(NC(=O)N3CCC4(CC3)CCN4C)c(F)c2)c2c1[C@@H](C)CN(c1ccc(C(=O)N(C)C)cc1)C2 [Example 645, (S)-5-(4-(dimethylcarbamoyl)phenyl)-N-(3-fluoro-4-(1-methyl-1,7-diazaspiro[3.5]nonane-7-carboxamido)benzyl)-1-isopropyl-7-methyl-4,5,6,7-tetrahydro-1H-pyrazolo[4,3-c]pyridine-3-carboxamide] | 1 |
| CC(C)n1nc(C(=O)NCc2ccc(NC(=O)N3CC4(CCCN(C)C4)C3)c(F)c2)c2c1[C@@H](C)CN(c1ccc(C(=O)N(C)C)cc1)C2 [Example 646, (S)-5-(4-(dimethylcarbamoyl)phenyl)-N-(3-fluoro-4-(6-methyl-2,6-diazaspiro[3.5]nonane-2-carboxamido)benzyl)-1-isopropyl-7-methyl-4,5,6,7-tetrahydro-1H-pyrazolo[4,3-c]pyridine-3-carboxamide] | 1 |
| CC(C)n1nc(C(=O)NCc2ccc(NC(=O)N3CCC4(CC3)CN(C)C4)c(F)c2)c2c1[C@@H](C)CN(c1ccc(C(=O)N(C)C)cc1)C2 [Example 647, (S)-5-(4-(dimethylcarbamoyl)phenyl)-N-(3-fluoro-4-(2-methyl-2,7-diazaspiro[3.5]nonane-7-carboxamido)benzyl)-1-isopropyl-7-methyl-4,5,6,7-tetrahydro-1H-pyrazolo[4,3-c]pyridine-3-carboxamide] | 1 |
| CC(C)n1nc(C(=O)NCc2ccc(NC(=O)N3CCN(C)C4(CC4)C3)c(F)c2)c2c1[C@@H](C)CN(c1ccc(C(=O)N(C)C)cc1)C2 [Example 648, (S)-5-(4-(dimethylcarbamoyl)phenyl)-N-(3-fluoro-4-(4-methyl-4,7-diazaspiro[2.5]octane-7-carboxamido)benzyl)-1-isopropyl-7-methyl-4,5,6,7-tetrahydro-1H-pyrazolo[4,3-c]pyridine-3-carboxamide] | 1 |
| CC(C)n1nc(C(=O)NCc2ccc(NC(=O)N3CCN(C)CC3)cc2)c2c1[C@@H](C)CN(c1ccc3c(c1)CCCN(C)C3=O)C2 [Example 651, (S)-1-isopropyl-7-methyl-5-(2-methyl-1-oxo-2,3,4,5-tetrahydro-1H-benzo[c]azepin-7-yl)-N-(4-(4-methylpiperazine-1-carboxamido)benzyl)-4,5,6,7-tetrahydro-1H-pyrazolo[4,3-c]pyridine-3-carboxamide] | 1 |
| Cc1nn(C)c(=O)n1-c1ccc(N2Cc3c(C(=O)NCc4ccc(NC(=O)N5CCN(C)CC5)cc4)nn(C(C)C)c3[C@@H](C)C2)cc1 [Example 652, (S)-5-(4-(1,3-dimethyl-5-oxo-1,5-dihydro-4H-1,2,4-triazol-4-yl)phenyl)-1-isopropyl-7-methyl-N-(4-(4-methylpiperazine-1-carboxamido)benzyl)-4,5,6,7-tetrahydro-1H-pyrazolo[4,3-c]pyridine-3-carboxamide] | 5 |
| CC(C)n1nc(C(=O)NCc2ccc(NC(=O)N3CCN(C)CC3)cc2)c2c1[C@@H](C)CN(c1ccc(-c3nccn3C3CC3)cn1)C2 [Example 653, (S)-5-(5-(1-cyclopropyl-1H-imidazol-2-yl)pyridin-2-yl)-1-isopropyl-7-methyl-N-(4-(4-methylpiperazine-1-carboxamido)benzyl)-4,5,6,7-tetrahydro-1H-pyrazolo[4,3-c]pyridine-3-carboxamide] | 3 |
| CC(C)n1nc(C(=O)NCc2ccc(NC(=O)N3CCN(C)CC3)cc2)c2c1[C@@H](C)CN(c1ccc(-c3nccn3C(F)F)cn1)C2 [Example 654, (S)-5-(5-(1-(difluoromethyl)-1H-imidazol-2-yl)pyridin-2-yl)-1-isopropyl-7-methyl-N-(4-(4-methylpiperazine-1-carboxamido)benzyl)-4,5,6,7-tetrahydro-1H-pyrazolo[4,3-c]pyridine-3-carboxamide] | 2 |
| CC(C)n1nc(C(=O)NCc2ccc(NC(=O)N3CCN(C)CC3)cc2)c2c1[C@@H](C)CN(c1ccc(-c3nncn3C3CC3)cn1)C2 [Example 655, (S)-5-(5-(4-cyclopropyl-4H-1,2,4-triazol-3-yl)pyridin-2-yl)-1-isopropyl-7-methyl-N-(4-(4-methylpiperazine-1-carboxamido)benzyl)-4,5,6,7-tetrahydro-1H-pyrazolo[4,3-c]pyridine-3-carboxamide] | 2 |

Source: patent US20250320213A1, “Nitrogen-Containing Heterocyclic Compounds” (Pfizer Inc., priority 2024, published 2025)
